In PubChem BioAssay (NCI):
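1) Cells in 96-well plates. 2) Compound, 48 h, 5 concentrations. 3) Linear interpolation between surrounding doses. 4) Unreached endpoint = highest concentration. TGI is the concentration that stops growth completely.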

Columns and labels:
Experiment in all cases: NCI anticancer screen, dose series, 48 h
A498 renal = tested on: A498 renal
COLO 205 colon = tested on: COLO 205 colon
HS 578T breast = tested on: HS 578T breast
MALME-3M melanoma = tested on: MALME-3M melanoma
MDA-MB-435 = tested on: MDA-MB-435
SK-MEL-5 melanoma = tested on: SK-MEL-5 melanoma
UACC-257 melanoma = tested on: UACC-257 melanoma
UACC-62 melanoma = tested on: UACC-62 melanoma
MOLT-4 leukemia = tested on: MOLT-4 leukemia
CCRF-CEM leukemia = tested on: CCRF-CEM leukemia

Row | SMILES | TGI (A498 renal) | TGI (COLO 205 colon) | TGI (HS 578T breast) | TGI (MALME-3M melanoma) | TGI (MDA-MB-435) | TGI (SK-MEL-5 melanoma) | TGI (UACC-257 melanoma) | TGI (UACC-62 melanoma) | TGI (MOLT-4 leukemia) | TGI (CCRF-CEM leukemia)
1 | C1CCCCC2(CCCCCCCCC3(CCC1)SCCS3)SCCS2 | > 100 µM | > 100 µM | > 100 µM | > 100 µM | > 100 µM | > 100 µM | > 100 µM | > 100 µM | – | –
2 | CCOC(=O)c1cn2c(n1)sc1cc(OC)ccc12 | > 100 µM | > 27.5 µM | 81.2 µM | > 100 µM | 3.48 µM | > 44.3 µM | > 100 µM | > 100 µM | > 100 µM | –
3 | COC(=O)CCC1(CCC(=O)OC)CCCCCCC(CCC(=O)OC)(CCC(=O)OC)C(=O)C1=O | > 100 µM | > 100 µM | > 100 µM | > 100 µM | > 100 µM | > 100 µM | > 100 µM | > 100 µM | – | –
4 | Oc1ccc(/C=C/c2cccc(/C=C/c3ccc(O)c(O)c3)n2)cc1O | 26.2 µM | 28.9 µM | > 100 µM | – | 28 µM | 15.8 µM | 28.5 µM | 18.6 µM | 17.8 µM | > 100 µM
5 | CCc1ccc2[nH]c(O)c(C3=Nc4ccccc4C3=O)c2c1 | 18.2 µM | > 100 µM | > 100 µM | > 100 µM | > 100 µM | 33.4 µM | > 100 µM | 43.3 µM | 64.2 µM | > 100 µM
6 | NC(=O)CSc1c2cc(O)ccc2nc2ccc(O)cc12 | > 10 µM | > 10 µM | > 10 µM | > 10 µM | > 10 µM | > 10 µM | > 10 µM | > 10 µM | > 10 µM | > 10 µM
7 | Cc1ccc(S(=O)(=O)CNC(=O)C(O)(O)C(F)(F)F)cc1 | > 100 µM | > 100 µM | > 100 µM | > 100 µM | > 100 µM | > 100 µM | > 100 µM | > 100 µM | > 100 µM | > 100 µM
8 | COC1(C2c3ccccc3CCN2C(=O)OC(C)(C)C)C(=O)C(c2ccccc2)=C1N(C)C (centres undefined) | 62.6 µM | 35.4 µM | 96.9 µM | 93.8 µM | 61.6 µM | 58.9 µM | > 100 µM | > 100 µM | > 100 µM | > 100 µM
9 | CCCCCCCCC/C=C1/CC(CO)(COC(=O)CC(C(C)C)C(C)C)OC1=O (centres undefined) | 12.6 µM | 4.64 µM | 3.91 µM | 14.3 µM | 19.6 µM | 21.9 µM | 26 µM | 25.6 µM | 35.4 µM | 25 µM
10 | N#Cc1c2ccc([N+](=O)[O-])cc2c(=O)n2c1[nH]c1ccc(C(F)(F)F)cc12 | > 48.8 µM | > 46.3 µM | > 100 µM | > 100 µM | > 100 µM | > 100 µM | > 100 µM | > 100 µM | > 100 µM | > 100 µM
11 | COc1ccc(C2=[S+]C(c3ccccc3)(c3ccccc3)c3ccccc32)cc1 | 44.6 µM | 31.3 µM | 68 µM | 46.1 µM | 41.1 µM | 31.5 µM | 46.9 µM | 53.6 µM | 61 µM | 88.9 µM
